Measured values from ChEMBL document CHEMBL5303304, “EUbOPEN Chemogenomics Library - IncuCyte” (2023).

What was measured:
Assay type in all cases: toxicity, cell-based
HEK-293T = assay: Incucyte cell viability with HEK293T; conditions: human, 10 µM, compound concentration 10 uM
Fibroblast = assay: Incucyte cell viability with human fibroblast; conditions: 10 µM, compound concentration 10 uM
U2OS = assay: Incucyte cell viability with U2OS; conditions: human, 10 µM, compound concentration 10 uM
Also: unitless GR value; below 1 slowed growth and below 0 cell loss.

| SMILES | Growth Rate (HEK-293T; 0 h, replicate number 1) | Growth Rate (HEK-293T; 18 h, replicate number 2) | Growth Rate (HEK-293T; 24 h, replicate number 1) | Growth Rate (HEK-293T; 24 h, replicate number 2) | Growth Rate (Fibroblast; 0 h, replicate number 1) | Growth Rate (Fibroblast; 0 h, replicate number 2) | Growth Rate (Fibroblast; 6 h, replicate number 2) | Growth Rate (Fibroblast; 12 h, replicate number 1) | Growth Rate (Fibroblast; 18 h, replicate number 1) | Growth Rate (Fibroblast; 18 h, replicate number 2) | Growth Rate (Fibroblast; 24 h, replicate number 1) | Growth Rate (Fibroblast; 24 h, replicate number 2) | Growth Rate (U2OS; 12 h, replicate number 2) | Growth Rate (U2OS; 18 h, replicate number 1) | Growth Rate (U2OS; 18 h, replicate number 2) | Growth Rate (U2OS; 24 h, replicate number 1) | Growth Rate (U2OS; 24 h, replicate number 2) | Growth Rate (HEK-293T; 6 h, replicate number 2) | Growth Rate (HEK-293T; 12 h, replicate number 2) | Growth Rate (HEK-293T; 18 h, replicate number 1) | also measured |
| --- | --- | --- | --- | --- | --- | --- | --- | --- | --- | --- | --- | --- | --- | --- | --- | --- | --- | --- | --- | --- | --- |
| CC(C)[C@H](C(=O)Nc1ccc(C(=O)NO)cc1)c1ccccc1 [AR-42] | -0.15 | 0.59 | 0.89 | 0.37 | 0.71 | 0.62 | 0.66 | -1 | -0.41 | 0.42 | 0.78 | 0.61 | 0.96 | 0.46 | 0.44 | 0 | 0.11 | – | – | – | Growth Rate (HEK-293T; 0 h, replicate number 2): 0.49; Growth Rate (Fibroblast; 12 h, replicate number 2): 0.61; Growth Rate (U2OS; 6 h, replicate number 2): 0.73; Growth Rate (U2OS; 12 h, replicate number 1): 0.83 |
| O=C(Nc1ccc(OC(F)(F)Cl)cc1)c1cnc(N2CC[C@@H](O)C2)c(-c2ccn[nH]2)c1 [ASCIMINIB] | – | 0.07 | 0.02 | 0.19 | -1 | 0.89 | -0.75 | 0.06 | 0.17 | 0.46 | 0.35 | 0.63 | 0.61 | – | 0.82 | 0.95 | – | -0.37 | -0.17 | -0.06 | Growth Rate (HEK-293T; 6 h, replicate number 1): -0.71; Growth Rate (HEK-293T; 12 h, replicate number 1): -0.32; Growth Rate (Fibroblast; 6 h, replicate number 1): 0.15; Growth Rate (Fibroblast; 12 h, replicate number 2): 0.12; Growth Rate (U2OS; 0 h, replicate number 2): 0.44 |
| CCN1CCN(Cc2ccc(NC(=O)Nc3ccc(Oc4cc(NC)ncn4)cc3)cc2C(F)(F)F)CC1 [AST-487] | -0.91 | -0.29 | – | -0.21 | 0.93 | – | – | – | – | 0.81 | – | 0.4 | 0.86 | 0.36 | 0.41 | 0.19 | 0.08 | -0.54 | -0.4 | – | Growth Rate (Fibroblast; 6 h, replicate number 1): -1; Growth Rate (U2OS; 0 h, replicate number 2): -0.84 |
| C[C@@H]1CN(CC(=O)N2CC(C)(C)c3nc(CO)c(Cc4ccc(F)cc4)cc32)[C@@H](CN2CCOC[C@H]2C)CN1 [ASTX-660] | 0.18 | – | 0.89 | – | – | 0.14 | – | – | – | – | – | – | – | – | – | 0.98 | – | – | – | 0.97 | – |
| O=C(NC1CCNCC1)c1n[nH]cc1NC(=O)c1c(Cl)cccc1Cl [AT-7519] | -0.17 | -0.51 | -0.15 | -0.4 | -1 | -0.43 | 0.01 | 0.38 | 0.17 | -0.23 | 0.08 | -0.17 | 0.4 | 0.05 | – | -0.08 | 0.03 | -0.74 | -0.63 | -0.2 | Growth Rate (HEK-293T; 6 h, replicate number 1): -0.3; Growth Rate (HEK-293T; 12 h, replicate number 1): -0.27; Growth Rate (Fibroblast; 6 h, replicate number 1): 0.78; Growth Rate (Fibroblast; 12 h, replicate number 2): -0.1; Growth Rate (U2OS; 6 h, replicate number 1): 0.44; Growth Rate (U2OS; 6 h, replicate number 2): 0.71; Growth Rate (U2OS; 12 h, replicate number 1): 0.18 |
| O=C(Nc1c[nH]nc1-c1nc2cc(CN3CCOCC3)ccc2[nH]1)NC1CC1 [AT-9283] | – | -0.43 | -0.38 | -0.3 | – | – | – | – | 0.66 | 0.81 | 0.09 | 0.43 | 0.78 | -0.05 | 0.14 | -0.18 | -0.09 | -0.8 | -0.59 | -0.46 | Growth Rate (HEK-293T; 6 h, replicate number 1): -0.72; Growth Rate (HEK-293T; 12 h, replicate number 1): -0.57; Growth Rate (U2OS; 0 h, replicate number 1): -1; Growth Rate (U2OS; 0 h, replicate number 2): 0.73; Growth Rate (U2OS; 12 h, replicate number 1): 0.31 |
| COc1cc(F)ccc1-c1ncnc(Nc2cccc(C[S@](C)(=N)=O)c2)n1 [ATUVECICLIB] | – | -0.44 | -0.25 | -0.36 | -0.58 | – | -0.07 | -0.04 | -0.01 | -0.2 | 0.09 | -0.14 | 0.18 | 0.11 | 0.07 | 0.03 | -0.05 | -0.61 | -0.56 | -0.26 | Growth Rate (HEK-293T; 6 h, replicate number 1): -0.48; Growth Rate (HEK-293T; 12 h, replicate number 1): -0.37; Growth Rate (Fibroblast; 6 h, replicate number 1): -0.11; Growth Rate (Fibroblast; 12 h, replicate number 2): -0.33; Growth Rate (U2OS; 0 h, replicate number 2): 0.53; Growth Rate (U2OS; 6 h, replicate number 1): 0.72; Growth Rate (U2OS; 6 h, replicate number 2): 0.22; Growth Rate (U2OS; 12 h, replicate number 1): 0.33 |
